Measurements reported in paper PMC6178282, “Comparative cell biological study of in vitro antitumor and antimetastatic activity on melanoma cells of GnRH-III-containing conjugates modified with short-chain fatty acids” (Beilstein Journal of Organic Chemistry, 2018).

How the values were obtained:
A2058 melanoma cells [1] = assay: Cell cycle analysis, propidium iodide flow cytometry; assay type: cell-based, human; settings: 10^−5 M, 24 h
Method: Since the conjugates had no or minor apoptotic effect, the cell cycle kinetics of the cells treated with GnRH-III-based conjugates was also investigated to reveal the mechanism of growth inhibition of these conjugates. The distribution of the control and treated cells in the different cell cycle phases was analyzed by measurements of relative DNA contents of individual cells by flow cytometry after propidium iodide (Sigma-Aldrich, St. Louis, MO, USA) staining. […] In parallel, a decrease in the proportions of cells in G1/G0 and G2/M phase and an increase in the percentage of S phase cells were also observed.
Figure 4 Effects of conjugates and daunorubicin (Dau) on cell cycle progression of A2058 melanoma cells. The model cell was incubated with the compounds at 10^−5 M concentration for 24 h. Results are expressed as a percentage of cells in the sub-G1 area and the major phases (G1/G0, S and G2/M) of the cell cycle. Data shown in the figure represent mathematical averages of two parallel measurements. […]
Jose, CA, USA) was used to measure the DNA content of cells with propidium iodide (Sigma-Aldrich, St. Louis, MO, USA) intercalated stoichiometrically to the double-stranded […]
A2058 cells were seeded, treated and harvested in the same way described in section ‘Apoptosis assay’; then, the cells were fixed in ice-cold 70% ethanol and kept at −20 °C for 24 h. The samples were centrifuged and resuspended in RNase (100 μg/ml, Sigma-Aldrich, St. Louis, MO, USA) containing citric acid/sodium phosphate buffer (pH = 7.8). Propidium iodide was added to the sample in 10 μg/ml concentration right before the flow cytometric measurements collecting at 25000 cells/sample.
Data were analyzed by CellQuest Pro and Flowing 2.5.1 (Turku Centre of Biotechnology, Turku, Finland) software. For aggregate/debris discrimination, FL2-Width vs FL2-Area plot […]
values to each population of cell cycle stages.
Measurement of cell adhesion […]
xCELLigence SP System ( ACEA Biosciences, San Diego, CA, USA).
The adhesion assay, analogous to the description in [5], was started with a background measurement as mentioned above in the section “Cell proliferation and cytotoxicity measurement”. In the next steps, the compounds were added in the concentration range of 10−8–10−5 M and the cells were loaded into the wells at a concentration of 10^4 cells/well. […]
NeuroProbe® MBB 96 chamber (NeuroProbe, Gaithersburg, MD, USA) by using polycarbonate filters with pore size 8 μm. To quantify the number of the chemotactically active cells, the alamarBlue-assay was applied as explained above. The ‘Chemotaxis index (Chtx. ind.) plotted in Figure 6 was calculated from the average of 8 parallel measurements and expressed as a percentage of control.

A2058 melanoma cells [2] = assay: Apoptosis assay, annexin V-FITC flow cytometry; assay type: cell-based, human; settings: 10^−5 M, 24 h, average of two parallels ± S.D., control 10.6 ± 0.51
Method: The pro-apoptotic effects of conjugates and Dau at 10^−5 M concentration was studied after 24 h incubation by flow cytometry using FITC-annexin V (Sony Biotechnology, Weybridge, UK) and a novel image cytometer (NucleoCounter® NC-250^TM, ChemoMetec A/S, Lillerød, Denmark) using Vitabright-48™ (ChemoMetec A/S, Lillerød, Denmark), a cell permeable dye that reacts with thiol groups to form a fluorescent product. […]
normalizing the viability of conjugate-treated cells with that of the control cells, and these indices of groups pretreated with inhibitors or DMSO were statistically compared.
The apoptotic effect of conjugates and Dau was determined by a FACSCalibur flow cytometer (Becton Dickinson, San Jose, CA, USA) after staining with annexin V-FITC (Sony Biotechnology, Weybridge, UK) and NucleoCounter® NC-250™ cell analyzer (ChemoMetec A/S, Lillerød, Denmark) using Vitabright-48™, a cell-permeable fluorescent dye (ChemoMetec A/S, Lillerød, Denmark). […]
The cells were dissociated by a TrypLE reagent (Thermo Fisher Scientific, Waltham, MA, USA) composed of recombinant enzyme protecting the cell’s surface proteins and it was followed by a centrifugation and a washing step with PBS. […] Before labeling with annexin V-FITC, the cells were measured by a flow cytometer for controlling the autofluorescence of cells in case of each treatment group. […]

## COc1cccc2c1C(=O)c1c(O)c3c(c(O)c1C2=O)C[C@@](O)(C(C)=O)C[C@@H]3O[C@H]1C[C@H](N)[C@H](O)[C@H](C)O1 [daunorubicin]
A2058 melanoma cells [1]; compared with control
  percentage of S phase cells: increase
A2058 melanoma cells [1]; control 3.4%, average of two parallels
  percentage of cells in sub-G1 phase: 14.1%
A2058 melanoma cells [1]; control 34.3%, average of two parallels
  percentage of cells in G2/M phase: decrease
A2058 melanoma cells [1]; control 47.6%, average of two parallels
  percentage of cells in G1/G0 phase: decrease
A2058 melanoma cells [2]
  the ratio of apoptotic cells, annexin V: 33.6 ± 5.51 %
